We go through three compounds from PMC3399945 (Journal of the American Chemical Society, 2012).

Square brackets hold non-standard residues; d marks the D form. Peptide text beside a SMILES is read from it. * marks the point of attachment. X1 = NC(=O)CC[C@@H]1NC(=O)CC/C=C/CN(CCC(=O)*)C(=O)[C@H](CCC(=O)O)NC1=O; β3hL = CC(C)C[C@H](N)CC(=O)O

Series [1] is described as follows: Amide hydrogen-deuterium exchange. It is filed as physicochemical. The settings on record: for H/D rate constant: D2O/TFE-d3 80/20, 20 °C, NMR, in duplicate; for Stabilization, −ΔG (free energy of protection): from H/D exchange, 20 °C.
Series [2] deals with N-terminal His6-tagged MDM2 (25–117) (Homo sapiens, UniProt Q00987). Briefly: Fluorescence polarization-based competition binding assay with Flu-p53. The conditions noted are these: comparison with previously reported affinity of 1 (ref 38). (In general: In fluorescence polarisation assays a small probe gives low polarisation when free and higher when bound to something large.)

A short description of series [3]: Thermal denaturation monitored by CD / Zimm–Bragg model. In kind it is physicochemical. The conditions noted are these: from broad thermal transition, CD in 10% TFE/PBS, Zimm–Bragg simulation.
The format of series [4] is physicochemical. The conditions noted are these: 10% TFE in PBS, 25 °C, 100 μM peptide, pH 7.4.

`CC(C)C[C@@H](CC(=O)N[C@@H](CC(C)C)C(=O)N[C@@H](CO)C(N)=O)NC(=O)[C@H](CCCCN)NC(=O)[C@H](Cc1c[nH]c2ccccc12)NC(=O)[C@H](CC(C)C)NC(=O)C[C@H](CC(=O)O)NC(=O)[C@H](CO)NC(=O)[C@H](Cc1ccccc1)NC(=O)CN1C/C=C/CCC(=O)N[C@@H](CCC(N)=O)C(=O)N[C@@H](CCC(=O)O)CC1=O` [Peptide 3]: the H/D rate constant in series [1] (residue 4 (F^4)) stood at 1.33e-05 h⁻¹; in series [1] (residue 5 (S^5)) it was 1.07e-05 h⁻¹; in series [1] (residue 8 (W^8)), 1.4e-06 h⁻¹; in series [1] (residue 9 (K^9)), 8e-07 h⁻¹; in series [1] (residue 12 (S^12)), 2.6e-06 h⁻¹. Also, the “affinity for MDM2 compared with HBS α-helix 1 (in words)” value in series [2] is listed as “comparable to that previously reported for the optimized HBS p53 α-helix analog 1”. In series [3], the “nucleation constant σ” value was at least 1.
Consider “XQEG*FSDLWKLLS-NH2 (sidechain bridge or staple) [Peptide 1]”, for which the H/D rate constant in series [1] (residue 4 (F^4)) was found to be 0.0003808 h⁻¹; in series [1] (residue 5 (S^5)), 0.0003808 h⁻¹; in series [1] (residue 8 (W^8)), 1.8e-06 h⁻¹; in series [1] (residue 9 (K^9)), 5.1e-06 h⁻¹; in series [1] (residue 12 (S^12)), 7.8e-06 h⁻¹. Moreover, the “Stabilization, −ΔG (free energy of protection)” value in series [1] (residue 6 (D^6 in 1 and 2, Dβ^6 in 3)) was -0.58 kcal/mol; in series [1] (residue 7 (L^7 in 1 and 3, Lβ^7 in 2)), 0.52 kcal/mol; in series [1] (residue 8 (W^8)), 1.22 kcal/mol; in series [1] (residue 9 (K^9)), 1.23 kcal/mol; in series [1] (residue 10 (L^10 in 1 and 2, Lβ^10 in 3)), 1.40 kcal/mol; in series [1] (residue 11 (L^11 in 1 and 3, Lβ^11 in 2)), 1.04 kcal/mol. The “Stabilization, −ΔG (free energy of protection)” value in series [1] (residue 12 (S^12)) is 1.42 kcal/mol. Further, the “CD signature (in words)” value in series [4] is “CD signature typical of a canonical α-helix, with double minima near 206 and 222 nm and a maximum at 190 nm”.
As to `CC(C)C[C@@H](CC(=O)N[C@@H](Cc1c[nH]c2ccccc12)C(=O)N[C@@H](CCCCN)C(=O)N[C@@H](CC(C)C)C(=O)N[C@H](CC(=O)N[C@@H](CO)C(N)=O)CC(C)C)NC(=O)[C@H](CC(=O)O)NC(=O)[C@H](CO)NC(=O)[C@H](Cc1ccccc1)NC(=O)CCN1C/C=C/CCC(=O)N[C@@H](CCC(N)=O)C(=O)N[C@@H](CCC(=O)O)C1=O` [Peptide 2] (X1-FSD[β3hL]WKL[β3hL]S-NH2), the H/D rate constant amounted to 0.0003809 h⁻¹ in series [1] (residue 4 (F^4)); 0.0003809 h⁻¹ in series [1] (residue 5 (S^5)); 6.9e-06 h⁻¹ in series [1] (residue 8 (W^8)); 2.8e-06 h⁻¹ in series [1] (residue 9 (K^9)); 5.85e-05 h⁻¹ in series [1] (residue 12 (S^12)). For the same compound, the “nucleation constant σ” value in series [3] is on record as at least 1.
